US9394284B2, “Compounds act at multiple prostaglandin receptors giving a general anti-inflammatory response” (Allergan, Inc., priority 2010, dated 2016)

Legend:
Format in all cases: cell-based
[1] = biological target: T1, human prostanoid EP1 receptor (Homo sapiens, UniProt P34995); test: FLIPR Ca2+ signaling antagonist assay, EP1 receptor stable cell line; conditions: HEK-293 EBNA stable cell line; standard agonist PGE2; NA = inactive (no antagonism or Kb 10,000 nM); PAg, Ag not defined
T1 construct: expressed in transfected cells
T1 sequence (P34995 1-402): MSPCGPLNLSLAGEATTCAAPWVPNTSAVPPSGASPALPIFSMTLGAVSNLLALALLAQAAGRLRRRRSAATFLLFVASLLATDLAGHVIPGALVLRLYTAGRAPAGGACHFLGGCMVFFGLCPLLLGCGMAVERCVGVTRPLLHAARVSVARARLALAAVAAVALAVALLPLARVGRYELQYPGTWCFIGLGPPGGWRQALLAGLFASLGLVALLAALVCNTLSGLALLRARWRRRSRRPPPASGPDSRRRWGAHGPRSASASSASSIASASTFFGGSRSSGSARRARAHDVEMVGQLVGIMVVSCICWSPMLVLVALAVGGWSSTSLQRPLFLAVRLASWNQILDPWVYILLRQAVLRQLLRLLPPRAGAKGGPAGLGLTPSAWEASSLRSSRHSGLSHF
Description: (§1) The above compounds were tested for PG antagonist activity as follows using human recombinant prostanoid receptor (DP1, EP1-4, FP, IP and TP) stable cell lines:
(§2) In order to measure the response of Gs and Gi coupled prostanoid receptors as a Ca^2+ signal, chimeric G protein cDNAs were used. Stable cell lines over-expressing human prostanoid DP1, EP1-4, FP, IP, and TP receptors were established as follows:
(§3) Briefly, human prostanoid DP1, EP2, and EP4 receptor cDNAs were co-transfected with chimeric Gqs cDNA containing a haemagglutanin (HA) epitope; human prostanoid EP3 receptors were co-transfected with chimeric Gqi-HA; human EP1, FP, IP, and TP receptor cDNAs were expressed with no exogenous G-proteins. Gqs and Gqi chimeric cDNAs (Molecular Devices, Sunnyvale, Calif., U.S.A.), as well as cDNAs of prostanoid receptors, were cloned into a pCEP4 vector with a hygromycin B selection marker. Transfection into HEK-293 EBNA (Epstein-Barr virus nuclear antigen) cells was achieved by the FuGENE 6 transfection Reagent (Roche Applied Science, Indianapolis, Ind., USA). Stable transfectants were selected according to hygromycin resistance. Because Gqs and Gqi contained an HA epitope, G-protein expression was detected by Western blotting analysis using anti-mouse HA monoclonal antibody and horseradish peroxidase (HRP)-conjugated secondary antibody, while functional expression of prostanoid receptors was detected by FLIPR screening (Matias et al., 2004). These stable cell lines were validated using previously published antagonists at 10 μM against serial dilutions of standard agonists by FLIPR functional assays for Ca^2+ Signaling (as described below).
(§4) Ca^2+ signaling studies were performed using a FLIPR TETRA system (Molecular Devices, Sunnyvale, Calif., USA) in the 384-format. This is a high-throughput instrument for cell-based assays to monitor Ca^2+ signaling associated with GPCRs and ion channels. Cells were seeded at a density of 5×10^4 cells/well in BioCoat poly-D-lysine coated, black wall, clear bottom 384-well plates (BD Biosciences, Franklin lakes, NJ, USA) and allowed to attach overnight in an incubator at 37° C. The cells were then washed twice with HBSS-HEPES buffer (Hanks' balanced salt solution without bicarbonate and phenol red, 20 mM HEPES, pH 7.4) using an ELx405 Select CW Microplate Washer (BioTek, Winooski, Vt., USA). After 60 min of dye-loading in the dark using the Ca^2+-sensitive dye Fluo-4AM (Invitrogen, Carlsbad, Calif., USA), at a final concentration of 2×10^−6M, the plates were washed 4 times with HBSS-HEPES buffer to remove excess dye and leaving 50 μl of buffer in each well. The plates were then placed in the FLIPR TETRA instrument and allowed to equilibrate at 37° C. AGN-211377 was added in a 25 μl volume to each well to give final concentrations of 0.1 μM, 0.3 μM, 1 μM, 3 μM, 10 μM, and 30 μM; or 0.067 μM, 0.1 μM, 0.2 μM, 0.3 μM, 0.67 μM, and 1 μM for cells over-expressing TP receptors. After 4.5 minutes, a 7-point serial dilution of the standard agonist for the corresponding receptor, in a 25 μl volume was injected at the final concentrations from 10^−11M to 10^−5M in 10-fold serial dilution increments for cells expressing human recombinant DP1, EP1, EP2, EP3, EP4, FP, and IP receptors. The dose range for the standard agonist for human recombinant TP receptors was from 10^−12 M to 10^−6 M. HBSS-HEPES buffer was used as the negative control for the standard agonists. Cells were excited with LED (light emitting diode) excitation at 470-495 nm and emission was measured through an emission filter at 515-575 nm. Assay plates were read for 3.5 minutes using the FLIPR^TETRA. The peak increase in fluorescence intensity was recorded for each well. On each plate, negative controls, dose response of positive controls, and co-treatments of antagonist-agonist for each dose were in triplicates.
(§5) Standard agonists were as follows: DP=BW 245C, EP1-EP4=PGE2, FP=17-phenyl-PGF2α, IP=Cicaprost, and TP=U-46619. […]

[2] = biological target: T2, human prostanoid EP4 receptor (Homo sapiens, UniProt P35408); test: FLIPR Ca2+ signaling antagonist assay, EP4 receptor stable cell line; conditions: HEK-293 EBNA stable cell line; standard agonist PGE2; NA = inactive (no antagonism or Kb 10,000 nM); PAg, Ag not defined
T2 construct: expressed in transfected cells
T2 sequence (P35408 whole entry): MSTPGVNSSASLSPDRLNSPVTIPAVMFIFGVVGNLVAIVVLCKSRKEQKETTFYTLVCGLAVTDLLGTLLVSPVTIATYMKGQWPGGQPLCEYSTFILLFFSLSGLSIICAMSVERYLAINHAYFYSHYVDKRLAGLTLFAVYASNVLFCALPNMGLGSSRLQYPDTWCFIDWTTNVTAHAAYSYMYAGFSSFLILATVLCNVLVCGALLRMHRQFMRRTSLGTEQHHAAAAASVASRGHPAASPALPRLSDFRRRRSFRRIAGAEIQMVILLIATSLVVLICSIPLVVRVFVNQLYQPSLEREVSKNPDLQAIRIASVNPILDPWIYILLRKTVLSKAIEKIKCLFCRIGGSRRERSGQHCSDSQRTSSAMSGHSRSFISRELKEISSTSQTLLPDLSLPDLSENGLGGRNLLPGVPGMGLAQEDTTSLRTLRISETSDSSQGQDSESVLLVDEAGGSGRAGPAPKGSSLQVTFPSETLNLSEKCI
Description: as §1, §2, §3, §4, §5

[3] = biological target: T3, human prostanoid DP1 receptor (Homo sapiens, UniProt Q13258); test: FLIPR Ca2+ signaling antagonist assay, DP1 receptor stable cell line; conditions: HEK-293 EBNA stable cell line; standard agonist BW 245C; NA = inactive (no antagonism or Kb 10,000 nM); PAg, Ag not defined
T3 construct: expressed in transfected cells
T3 sequence (Q13258 1-359): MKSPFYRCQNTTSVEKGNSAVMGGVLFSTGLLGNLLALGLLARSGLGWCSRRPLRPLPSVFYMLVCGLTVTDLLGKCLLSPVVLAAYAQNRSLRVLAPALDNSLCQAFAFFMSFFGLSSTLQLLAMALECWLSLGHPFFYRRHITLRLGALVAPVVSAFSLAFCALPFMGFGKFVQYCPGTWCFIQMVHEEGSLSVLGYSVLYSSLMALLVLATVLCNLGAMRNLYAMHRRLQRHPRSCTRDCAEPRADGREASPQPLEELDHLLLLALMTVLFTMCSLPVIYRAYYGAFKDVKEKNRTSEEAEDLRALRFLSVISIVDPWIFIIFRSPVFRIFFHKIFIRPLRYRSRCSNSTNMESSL
Description: as §1, §2, §3, §4, §5

[4] = biological target: T4, human prostanoid TP receptor (Homo sapiens, UniProt P21731); test: FLIPR Ca2+ signaling antagonist assay, TP receptor stable cell line; conditions: HEK-293 EBNA stable cell line; standard agonist U-46619; NA = inactive (no antagonism or Kb 10,000 nM); PAg, Ag not defined
T4 construct: expressed in transfected cells
T4 sequence (P21731 1-343): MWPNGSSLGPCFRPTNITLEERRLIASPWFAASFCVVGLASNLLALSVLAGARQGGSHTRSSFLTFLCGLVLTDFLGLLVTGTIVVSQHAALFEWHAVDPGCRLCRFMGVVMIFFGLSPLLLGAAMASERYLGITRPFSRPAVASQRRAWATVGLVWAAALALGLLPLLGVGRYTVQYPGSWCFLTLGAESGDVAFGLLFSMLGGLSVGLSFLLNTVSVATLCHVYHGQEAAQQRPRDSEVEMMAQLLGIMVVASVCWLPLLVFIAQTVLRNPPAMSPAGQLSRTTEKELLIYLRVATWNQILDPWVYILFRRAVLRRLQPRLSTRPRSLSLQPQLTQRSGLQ
Description: as §1, §2, §3, §4, §5

[5] = biological target: T5, human prostanoid FP receptor (Homo sapiens, UniProt P43088); test: FLIPR Ca2+ signaling antagonist assay, FP receptor stable cell line; conditions: HEK-293 EBNA stable cell line; standard agonist 17-phenyl-PGF2α; NA = inactive (no antagonism or Kb 10,000 nM); PAg, Ag not defined
T5 construct: expressed in transfected cells
T5 sequence (P43088 whole entry): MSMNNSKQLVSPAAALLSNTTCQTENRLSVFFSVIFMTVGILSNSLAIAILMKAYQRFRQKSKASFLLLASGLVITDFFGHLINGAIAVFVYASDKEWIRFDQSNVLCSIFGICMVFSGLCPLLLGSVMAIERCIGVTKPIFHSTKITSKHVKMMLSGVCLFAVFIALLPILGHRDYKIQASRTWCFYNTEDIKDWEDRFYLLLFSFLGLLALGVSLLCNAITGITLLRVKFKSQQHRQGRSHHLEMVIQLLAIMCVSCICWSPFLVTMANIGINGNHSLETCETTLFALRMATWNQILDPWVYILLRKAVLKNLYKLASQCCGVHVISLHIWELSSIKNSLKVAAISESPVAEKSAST
Description: as §1, §2, §3, §4, §5

[6] = biological target: T6, human prostanoid IP receptor (Homo sapiens, UniProt P43119); test: FLIPR Ca2+ signaling antagonist assay, IP receptor stable cell line; conditions: HEK-293 EBNA stable cell line; standard agonist Cicaprost; NA = inactive (no antagonism or Kb 10,000 nM); PAg, Ag not defined
T6 construct: expressed in transfected cells
T6 sequence (P43119 whole entry): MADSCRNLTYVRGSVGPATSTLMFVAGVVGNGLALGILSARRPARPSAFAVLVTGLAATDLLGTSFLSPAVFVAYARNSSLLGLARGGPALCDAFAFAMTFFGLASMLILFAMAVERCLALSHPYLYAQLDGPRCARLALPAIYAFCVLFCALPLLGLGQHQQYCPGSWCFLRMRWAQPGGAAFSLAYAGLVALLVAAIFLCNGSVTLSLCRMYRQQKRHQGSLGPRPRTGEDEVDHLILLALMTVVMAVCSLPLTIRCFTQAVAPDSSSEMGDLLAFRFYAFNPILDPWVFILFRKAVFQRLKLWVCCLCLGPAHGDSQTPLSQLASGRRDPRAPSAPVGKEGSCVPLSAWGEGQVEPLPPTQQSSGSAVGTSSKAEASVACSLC
Description: as §1, §2, §3, §4, §5

Row | Compound | Kb [1] | Kb [2] | Kb [3] | Kb [4] | Kb [5] | Kb [6]
1 | CCC(CC)COc1ccccc1Cn1nc(CC(C)C(=O)O)cc1C (racemic) [Example 69, 3-{1-[2-(2-ethyl-butoxy)-benzyl]-5-methyl-1H-pyrazol-3-yl}-2-methyl-propionic acid] | 180 nM | 600 nM | 700 nM | 300 nM | 2500 nM | 
2 | Cc1cc(CC(C)C(=O)O)nn1Cc1cc(Cl)ccc1OCC1CCCC1 (racemic) [Example 70, 3-{1-[5-Chloro-2-(2-cyclopentylmethoxy)-benzyl]-5-methyl-1H-pyrazol-3-yl}-2-methyl-propionic acid] | 30 nM | 80 nM | 450 nM | 120 nM | 130 nM | 2000 nM
3 | CCC(C)CCOc1ccc(Br)cc1Cn1nc(CCC(=O)O)cc1C (stereo not shown) [Example 7, 3-[1-(5-Bromo-2-(3-methyl-pentyloxy)-benzyl)-5-methyl-1H-pyrazol-3-yl]-propionic acid] | 90 nM | 600 nM | 490 nM | 2 nM | 90 nM | 3500 nM
4 | CCC(C)(CC)COc1ccc(Br)cc1Cn1nc(CCC(=O)O)cc1C [Example 11, 3-{1-[5-Bromo-2-(2-ethyl-2-methyl-butoxy)-benzyl]-5-methyl-1H-pyrazol-3-yl}-propionic acid] | 36 nM | 430 nM | 380 nM | 25 nM | 110 nM | 
5 | Cc1cc(CCC(=O)O)nn1Cc1cc(Br)ccc1OCC1(C(F)(F)F)CCCC1 [Example 14, 3-[1-(5-Bromo-2-(1-trifluoromethylcyclopentylmethoxy)-benzyl)-5-methyl-1H-pyrazol-3-yl]-propionic acid] | 180 nM | 1900 nM | 400 nM | 160 nM | 1000 nM | 
6 | Cc1cc(CCC(=O)NS(=O)(=O)c2ccccc2)nn1Cc1cc(Cl)ccc1OCc1ccc(Cl)cc1Cl [Example 28, N-(3-[1-(5-Chloro-2-(2,4-dichlorobenzyloxy)benzyl)-5-methyl-1H-pyrazol-3-yl]-propionyl)benzenesulfonamide] | 230 nM |  |  | 540 nM |  | 
7 | Cc1cc(CCC(=O)O)nn1Cc1cc(Cl)ccc1OCC1CCCO1 (stereo not shown) [Example 33, 3-[1-(5-Chloro-2-(tetrahydrofuran-2-yl-methoxy)benzyl)-5-methyl-1H-pyrazol-3-yl]-propionic acid] | 800 nM |  |  | 1000 nM | 4000 nM | 
8 | Cc1cc(CCC(=O)O)nn1Cc1cc(Cl)ccc1OCC1(C(F)(F)F)CCCC1 [Example 37, 3-[1-(5-Chloro-2-(1-trifluoromethylcyclopentylmethoxy)benzyl)-5-methyl-1H-pyrazol-3-yl]-propionic acid] | 180 nM | 1900 nM | 400 nM | 160 nM | 1000 nM | 
9 | Cc1cc(CCC(=O)NS(=O)(=O)C(F)(F)F)nn1Cc1cc(Cl)ccc1OCC(C)C [Example 44, N-(3-[1-(5-Chloro-2-(2-methylpropyloxy)benzyl)-5-methyl-1H-pyrazol-3-yl]-propionyl)C,C,C-trifluoromethanesulfon amide] | 14 nM | 500 nM | 800 nM | 5 nM | 500 nM | 
10 | CCC(CC)Oc1ccc(Cl)cc1Cn1nc(CCC(=O)O)cc1C [Example 45, 3-[1-(5-Chloro-2-(1-ethylpropyloxy)benzyl)-5-methyl-1H-pyrazol-3-yl]-propionic acid] | 240 nM |  | 500 nM | 35 nM | 660 nM | 6100 nM
11 | CCC(CC)COc1ccc(F)cc1Cn1nc(CCC(=O)O)cc1C [Example 47, 3-[1-[2-(2-Ethyl-butoxy)-5-fluoro-benzyl]-5-methyl-1H-pyrazol-3-yl]-propionic acid] | 370 nM | 400 nM | 240 nM | 100 nM | 2300 nM | 
12 | COc1ccc(OCC2CC2)c(Cn2nc(CCC(=O)O)cc2C)c1 [Example 54, 3-[1-(2-Cyclopropylmethoxy-5-methoxy-benzyl)-5-methyl-1H-pyrazol-3-yl]-propionic acid] | 560 nM | 4700 nM | 1700 nM | 1200 nM | 1000 nM | 
13 | CCC(CC)COc1ccc(C(N)=O)cc1Cn1nc(CCC(=O)O)cc1C [Example 61, 3-{1-[5-Carbamoyl-2-(2-ethyl-butoxy)-benzyl]-5-methyl-1H-pyrazol-3-yl}-propionic acid] |  | 800 nM |  | 1100 nM |  | 
14 | CCC(CC)COc1ccc(C(=O)O)cc1Cn1nc(CCC(=O)O)cc1C [Example 62, 3-{1-[5-Carboxy-2-(2-ethyl-butoxy)-benzyl]-5-methyl-1H-pyrazol-3-yl}-propionic acid] | 2000 nM |  |  | 3700 nM |  | 
